Measurements taken from patent US20220280590A1, “USE OF INHIBITORS OF YAP AND SOX2 FOR THE TREATMENT OF CANCER” (Georgetown University, priority 2019, published 2022).

How the values were obtained:
[1] = test system: primary KYYF pancreatic tumor cells; experiment: Relative mRNA levels of lineage genes and SOX2 in KYYF pancreatic tumor cells; type: cell-based, mouse; conditions: YAP+ primary pancreatic tumor cells, 0.5, 2, 5 μM for 3 days versus DMSO
Text: (§1) (*P<0.05; **P<0.005; ***P<0.0005; ns: not significant; error bars indicate standard deviation).
(§2) Quantitative methylation-specific PCR (qMSP) was used to confirm that the promoters of acinar lineage genes Ptf1a and Bhlha15 became heavily methylated in KF pancreatic tumors in contrast to wild type (WT) pancreata, which was partially reversed in KYYF pancreata after TAM treatment (FIG. 5L). To directly assess the effects of DNA de-methylation on the expression of pancreatic lineage genes, YAP^+ primary pancreatic tumor cells were treated with vehicle control or DNA methylation inhibitor 5-azacytidine (5-Aza). […] The levels of global DNA methylation in primary KYYF pancreatic tumor cells were measured following treatment with Ad-GFP or Ad-CRE, and it was confirmed that YAP ablation induced a rapid and significant decline in global DNA methylation, which partially recovered over time (FIG. 5B).

[2] = test system: primary KYYF pancreatic tumor cells; experiment: Percent of global DNA methylation in KYYF cells; type: cell-based, mouse; conditions: 5 μM, 3 days versus DMSO
Text: as §1, §2

[3] = test system: mT4, 08031-9, MD-MB-231, 786-O and HepG2 cells; experiment: FACS analysis of relative ratios of control (RFP-) and YAP/TAZ-depleted (shY/T, RFP+) cancer cells in co-culture; type: cell-based; conditions: compared to vehicle, pancreatic, schwannoma, breast, kidney and liver cancer lines
Experimental: FACS analysis of the relative ratios of control (Ctrl, RFP-) or YAP/TAZ-depleted (shY/T, RFP^+) cancer cells after co-culturing in the presence of vehicle (Veh) or BE inhibitor mivebresib (Miv) was performed (n=3). […] The YAP/TAZ hairpin RNAs were fused with fluorescent protein RFP. […] (FIG. 8).

[4] = test system: SOX2, SOX5, and TWIST2 in primary PDAC cell lines; experiment: Western blot of pluripotent transcription factors in primary PDAC lines; type: cell-based; conditions: after 24 hours, compared to DMSO control
Experimental: Western blot assay with indicated antibodies in four different primary PDAC lines expressing variable levels of SOX2/SOX5/TWIST2 after 24 hr treatment with DMSO (−) or Miv (+) is shown. Multiple primary PDAC cell lines were treated with BET inhibitor mivebresib.

| SMILES | expression of acinar and endocrine lineage genes and SOX2 [1] | global DNA methylation [2] | percentage of control (RFP-) relative to shY/T (RFP+) cancer cells [3] | expression of pluripotent transcription factors SOX2, SOX5, and TWIST2 [4] |
| --- | --- | --- | --- | --- |
| Nc1ncn([C@@H]2O[C@H](CO)[C@@H](O)[C@H]2O)c(=O)n1 [5-Aza, 5-azacytidine] | dose-dependent upregulation | global DNA de-methylation |  |  |
| CCS(=O)(=O)Nc1ccc(Oc2ccc(F)cc2F)c(-c2cn(C)c(=O)c3[nH]ccc23)c1 [mivebresib] |  |  | greater percentage of control (RFP^−) cancer cells relative to shY/T (RFP^+) cancer cells | selectively reduced |
